Assay results reported in US5744023A, “Method for separation and recovery of organogermanium compound” (Asai Germanium Research Institute Co., Ltd., priority 1994, dated 1998).

What was measured:
[1] = acute oral toxicity (LD50) in mice; conditions: mouse, in vivo, orally administered
Text: (§1) Since these organogermanium compounds are an expensive and valuable resource, it is desirable that they can be separated and recovered from respective reaction mixtures for reutilization. However, both the saccharides and the organogermanium compounds are organic compounds of fairly high molecular weights and no method for effective separation of the two kinds of the compounds is known.

[2] = acute oral toxicity (LD50) in rats; conditions: rat, in vivo, orally administered
Text: as §1

Work on O=C(O)C[CH2][Ge](=[O])[O][Ge](=[O])[CH2]CC(=O)O [Compound 1, 2-carboxyethylgermanium sesquioxide] yielded an LD50 [1] of at least 6000 mg/kg and an LD50 [2] of at least 10000 mg/kg.
